Laboratory results taken from publication PMC12457078, “Inhibition of soluble epoxide hydrolase in endotoxin induced pig lung injury” (Frontiers in Pharmacology, 2025).
Where “and” joins values, the source holds several entries; their conditions need not be identical. Equal values may be shown once.

Test system: sEH
Assay: oxylipin analysis, epoxide/diol ratios (target engagement)
Format: in vivo, pig
Parameters: 14,15-DiHETE: unit not given beside the values; 12,13-DiHOME / 9,10-DiHODE / 11,12-DiHETrE / 14,15-DiHETrE / 10,11-DiHDPE / 19,20-DiHDPE / 13-HODE / 5-HETE / 11-HETE / 12-HETE / 5-HEPE / 9(10)-EpOME / 12(13)-EpOME / EKODE / 11(12)-EpETE: unit not given here
Conditions: for 9,10,13-TriHOME / 9,12,13-TriHOME: bad chromatography; for 14,15-DiHETE: high blanks
Method: All animals were monitored with pulse oximetry, heart rate, ECG, systemic arterial blood pressure (ABP), pulmonary arterial pressure (PAP), central venous pressure (CVP) temperature, tidal volumes, respiratory rate and end tidal carbon dioxide. At baseline, and at 3 h, 6 h and at the end of the experiment, pulmonary capillary wedge pressure (PCWP) was measured together with arterial and venous blood gas analyses, as well as cardiac output calculations. Routine chemistry, including creatinine, bilirubin, glucose, electrolytes were collected at baseline and at the end of the experiment (Vetscan VS2®, Abaxis, Griesheim, Germany). Blood samples for measurement of AEPU plasma concentrations, as well as oxylipins (i.e., EpETrEs and their DiHETrE corresponding diols as well as related compounds with other polyunsaturated fatty acid precursors), were collected at baseline, 6 h and at the end of the experiment.
This meant nine subjects in each group to achieve 90% power of detecting a difference of this size given α = 0.05. Anticipating that not all experiments would reach completion, we used a sample size of 22. The results were analyzed using SPSS Statistics, version 24 (IBM Corp., Armonk, N.Y., United States). Normality was examined with the Shapiro-Wilk test, together with examination of histograms of data. Continuous variables were compared using Student’s t-test or Mann Whitney U test, as appropriate. Categorical variables were compared using Fischer’s exact test. Statistical significance was set at α < 0.05. Oxylipins with at least 80% of observations above limit of detection at both timepoints were included in pairwise comparisons of ratios and fold-change evaluations where observations below limit of detection (LOD) were substituted with 0.5 x LOD.

SMILES: CCOCCOCCOCCCCCNC(=O)NC12CC3CC(CC(C3)C1)C2 [sEH-i]
- 13-HOTrE (time 0, individual pigs): 1.38 and 2.03 and 0.71 and 0.95 and 0.65
- 13-oxo-ODE (time 0, individual pigs): <LOD
- 14(15)-EpETE (time 0, individual pigs): <LOD
- 14(15)-EpETrE (time 0, individual pigs): <LOD
- 14,15-DiHETrE (time 0, individual pigs): 0.82 and 0.55 and 0.35 and 0.43 and 0.51
- 15(16)-EpODE (time 0, individual pigs): 12.33 and 9.22 and 4.38 and 5.90 and 3.04
- 15,16-DiHODE (time 0, individual pigs): 22.17 and 16.83 and 10.14 and 20.63 and 11.96
- 15-HEPE (time 0, individual pigs): <LOD
- 15-HETE (time 0, individual pigs): 0.31 and 0.33 and 0.20 and 0.29 and 0.16
- 15-HETrE (time 0, individual pigs): 0.19 and 0.21 and 0.13 and 0.18 and 0.10
- 15-oxo-ETE (time 0, individual pigs): 0.03 and <LOD and 0.043 and 0.0266
- 16(17)-EpDPE (time 0, individual pigs): <LOD
- 16,17-DiHDPE (time 0, individual pigs): 0.10 and 0.0746 and 0.0252 and 0.0444 and 0.03
- 17(18)-EpETE (time 0, individual pigs): <LOD
- 17,18-DiHETE (time 0, individual pigs): 0.69 and 0.45 and 0.26 and 0.66 and 0.46
- 17-HDoHE (time 0, individual pigs): <LOD
- 19(20)-EpDPE (time 0, individual pigs): <LOD
- 19,20-DiHDPE (time 0, individual pigs): 1.19 and 0.80 and 0.30 and 1.02 and 0.43
- 20-HETE (time 0, individual pigs): 0.11 and 0.12 and 0.0652 and 0.10 and 0.0444
- EKODE (time 0, individual pigs): 0.36 and 0.27 and 0.38 and 0.31 and 0.33
- LTB4 (time 0, individual pigs): <LOD and 0.17
- PGD2 (time 0, individual pigs): <LOD
- PGE2 (time 0, individual pigs): <LOD
- PGF2a (time 0, individual pigs): <LOD and 0.0428
- Resolvin D1 (time 0, individual pigs): <LOD
- Resolvin D2 (time 0, individual pigs): <LOD
- TXB2 (time 0, individual pigs): 0.0943 and 0.19 and 0.08601 and 0.18
- 9,10,13-TriHOME (time 0, individual pigs): 3.66 and 5.50 and 4.37 and 4.76 and 5.61
- 9,12,13-TriHOME (time 0, individual pigs): <LOD
- 14,15-DiHETE (time 0, individual pigs): 0.1158 and 0.09583 and 0.02876 and 0.02655 and 0.09648
- 5(6)-EpETrE (time 6, individual pigs): <LOD
- 5,6-DiHETrE (time 6, individual pigs): <LOD
- 5-HEPE (time 6, individual pigs): 0.06 and 0.18 and <LOD and 0.07 and 0.05
- 5-HETE (time 6, individual pigs): 0.3567 and 0.58 and 0.2089 and 0.4225 and 0.4419
- 5-oxo-ETE (time 6, individual pigs): 0.11 and 0.18 and <LOD and 0.14 and 0.15
- 7(8)-EpDPE (time 6, individual pigs): <LOD
- 7,8-DiHDPE (time 6, individual pigs): <LOD
- 8(9)-EpETE (time 6, individual pigs): <LOD
- 8(9)-EpETrE (time 6, individual pigs): <LOD
- 8,9-DiHETE (time 6, individual pigs): <LOD
- 8,9-DiHETrE (time 6, individual pigs): 0.10 and 0.07 and <LOD and 0.0449
- 8-HETE (time 6, individual pigs): 0.07 and 0.09 and 0.04 and 0.12 and 0.0759
- 9(10)-EpODE (time 6, individual pigs): 0.63 and 0.49 and 0.36 and 0.35 and 0.42
- 9(10)-EpOME (time 6, individual pigs): 1.87 and 1.33 and 0.60 and 1.51 and 2.48
- 9,10-DiHODE (time 6, individual pigs): 0.64 and 1.20 and 1.17 and 0.73 and 0.69
- 9,10-DiHOME (time 6, individual pigs): 5.75 and 8.57 and 9.02 and 5.97
- 9-HETE (time 6, individual pigs): <LOD
- 9-HODE (time 6, individual pigs): 13.28 and 24.06 and 22.88 and 16.64 and 15.68
- 9-HOTrE (time 6, individual pigs): 1.36 and 2.59 and 1.91 and 1.50 and 0.95
- 9-oxo-ODE (time 6, individual pigs): <LOD
- 10(11)-EpDPE (time 6, individual pigs): <LOD
- 10,11-DiHDPE (time 6, individual pigs): 0.07 and 0.03 and 0.0327 and 0.02 and 0.0362
- 11(12)-EpETE (time 6, individual pigs): 0.1179 and 0.09737 and 0.1269 and 0.06515 and 0.0705
- 11(12)-EpETrE (time 6, individual pigs): 0.05 and 0.0441 and 0.0274 and 0.0271
- 11,12-DiHETE (time 6, individual pigs): 0.0351 and 0.0319 and 0.0666 and 0.03 and 0.05
- 11,12-DiHETrE (time 6, individual pigs): 0.86 and 0.62 and 1.36 and 0.66 and 0.92
- 11-HETE (time 6, individual pigs): 0.42 and 0.30 and 0.66 and 0.25 and 0.40
- 12(13)-EpODE (time 6, individual pigs): 1.12 and 0.79 and 0.95 and 0.91
- 12(13)-EpOME (time 6, individual pigs): 5.25 and 4.08 and 1.60 and 5.63 and 7.56
- 12,13-DiHODE (time 6, individual pigs): 1.01 and 1.89 and 1.53 and 1.48 and 1.36
- 12,13-DiHOME (time 6, individual pigs): 16.00 and 24.72 and 21.84 and 22.49 and 19.00
- 12-HEPE (time 6, individual pigs): 0.08 and 0.11 and 0.06 and 0.0632 and 0.04
- 12-HETE (time 6, individual pigs): 1.11 and 0.86 and 0.59 and 0.65 and 0.46
- 12-oxo-ETE (time 6, individual pigs): <LOD
- 13(14)-EpDPE (time 6, individual pigs): <LOD
- 13,14-DiHDPE (time 6, individual pigs): 0.15 and 0.10 and 0.13 and 0.06
- 13-HODE (time 6, individual pigs): 42.16 and 101.75 and 49.69 and 56.11 and 42.57
- 13-HOTrE (time 6, individual pigs): 1.94 and 6.77 and 3.06 and 2.84 and 1.84
- 13-oxo-ODE (time 6, individual pigs): <LOD and 5.47
- 14(15)-EpETE (time 6, individual pigs): <LOD
- 14(15)-EpETrE (time 6, individual pigs): <LOD and 0.0855 and 0.08
- 14,15-DiHETrE (time 6, individual pigs): 1.69 and 1.48 and 1.65 and 0.72 and 0.63
- 15(16)-EpODE (time 6, individual pigs): 24.31 and 29.46 and 11.19 and 30.59 and 26.51
- 15,16-DiHODE (time 6, individual pigs): 54.83 and 45.60 and 30.98 and 42.25 and 33.76
- 15-HEPE (time 6, individual pigs): <LOD
- 15-HETE (time 6, individual pigs): 0.63 and 0.86 and 0.43 and 0.48
- 15-HETrE (time 6, individual pigs): 0.41 and 0.47 and 0.48 and 0.37 and 0.39
- 15-oxo-ETE (time 6, individual pigs): 0.0346 and <LOD and 0.03 and 0.0128
- 16(17)-EpDPE (time 6, individual pigs): <LOD
- 16,17-DiHDPE (time 6, individual pigs): 0.19 and 0.20 and 0.14 and 0.0527 and 0.085
- 17(18)-EpETE (time 6, individual pigs): <LOD
- 17,18-DiHETE (time 6, individual pigs): 1.22 and 1.33 and 1.55 and 0.59 and 1.01
- 17-HDoHE (time 6, individual pigs): <LOD
- 19(20)-EpDPE (time 6, individual pigs): <LOD
- 19,20-DiHDPE (time 6, individual pigs): 1.72 and 1.58 and 1.48 and 0.68 and 0.62
- 20-HETE (time 6, individual pigs): 0.11 and 0.12 and 0.08 and 0.10
- EKODE (time 6, individual pigs): 0.88 and 0.74 and 0.47 and 0.87 and 1.05
- LTB4 (time 6, individual pigs): <LOD and 0.28 and 0.38 and 0.18 and 0.43
- PGD2 (time 6, individual pigs): <LOD and 0.01 and 0.00656
- PGE2 (time 6, individual pigs): 0.095 and 0.06 and 0.20 and <LOD and 0.12
- PGF2a (time 6, individual pigs): 1.61 and 0.65 and 4.40 and 0.44 and 2.56
- Resolvin D1 (time 6, individual pigs): <LOD
- Resolvin D2 (time 6, individual pigs): <LOD
- TXB2 (time 6, individual pigs): 2.92 and 3.83 and 2.22 and 1.21 and 1.79
- 9,10,13-TriHOME (time 6, individual pigs): 2.86 and 3.12 and 7.92 and 7.73 and 5.56
- 9,12,13-TriHOME (time 6, individual pigs): <LOD and 0.24
- 14,15-DiHETE (time 6, individual pigs): 0.3645 and 0.4177 and 0.09663 and 0.04163 and 0.2578
